Measurements taken from patent US20100216779A1 (GLAXOSMITHKLINE LLC, priority 2007, published 2010).

Columns and labels:
Type in all cases: cell-based
[1] = test system: NCI-H929 (multiple myeloma); test: Inhibition of cell proliferation, CellTiter-Glo, NCI-H929; conditions: Homo sapiens, 72 h
Protocol: C. Inhibition of Cell Proliferation
Cell proliferation was measured by either CellTiter-Glo (measures cellular ATP level as a surrogate for total cell number) or by InCell analyzer (counts number of nuclei as a measure of cell number). For CellTiter-Glo assay, exponentially growing cell lines of different tumor origins, cultured in appropriate media containing 10% fetal bovine serum at 37° C. in a 5% CO2 incubator, were plated at low density (less than 2000 cells/well) in 96-well plates. Twenty four hours post-plating, cells were treated with different concentrations of test compounds ranging from 30 uM to 1.5 nM. Several wells were left untreated as a control. Seventy two hours post-treatment, cell numbers were determined using 50-100 ul per well of CellTiter-Glo (Promega #G7573). Plates were incubated at 37° C. for 30 minutes and the chemiluminescent signal was read on the Victor V or Envison 2100 reader. […]

[2] = biological target: T1, IR (NIH-3T3 cells over expressing human IGF-1R or IR) (Homo sapiens, UniProt P06213); test: IR cellular autophosphorylation (DELFIA); conditions: NIH-3T3 cells over expressing IR, insulin stimulated
T1 construct: expressed in transfected cells; host or cells: NIH-3T3 (mouse fibroblasts)
Method in brief: (§1)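 Read-out: DELFIA on lysates, receptor-specific capture antibody plus europium-labelled anti-phosphotyrosine, reported as % of IGF-1- or insulin-stimulated signal. Transfected NIH-3T3 cells got compound (30 uM–1.5 nM, 2 h) before a 15 min ligand pulse: IGF-1 30 ng/mL for IGF-1R, insulin 3 ug/mL for IR.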

COLO205 (colon) = test: Inhibition of cell proliferation, CellTiter-Glo, COLO205; conditions: Homo sapiens, COLO 205, 72 h
Method in brief: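 Exponentially growing COLO205 cells in medium with 10% FBS were plated below 2000 cells/well at 37 °C, 5% CO2. Untreated wells served as controls.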

[3] = biological target: T2, human IGF-1R (NIH-3T3 cells over expressing human IGF-1R) (Homo sapiens, UniProt P08069); test: IGF-1R cellular autophosphorylation (DELFIA); conditions: IGF-1 stimulated
T2 construct: expressed in transfected cells; host or cells: NIH-3T3 (mouse fibroblasts)
Method in brief: as §1

T2 sequence (P08069 31-1367): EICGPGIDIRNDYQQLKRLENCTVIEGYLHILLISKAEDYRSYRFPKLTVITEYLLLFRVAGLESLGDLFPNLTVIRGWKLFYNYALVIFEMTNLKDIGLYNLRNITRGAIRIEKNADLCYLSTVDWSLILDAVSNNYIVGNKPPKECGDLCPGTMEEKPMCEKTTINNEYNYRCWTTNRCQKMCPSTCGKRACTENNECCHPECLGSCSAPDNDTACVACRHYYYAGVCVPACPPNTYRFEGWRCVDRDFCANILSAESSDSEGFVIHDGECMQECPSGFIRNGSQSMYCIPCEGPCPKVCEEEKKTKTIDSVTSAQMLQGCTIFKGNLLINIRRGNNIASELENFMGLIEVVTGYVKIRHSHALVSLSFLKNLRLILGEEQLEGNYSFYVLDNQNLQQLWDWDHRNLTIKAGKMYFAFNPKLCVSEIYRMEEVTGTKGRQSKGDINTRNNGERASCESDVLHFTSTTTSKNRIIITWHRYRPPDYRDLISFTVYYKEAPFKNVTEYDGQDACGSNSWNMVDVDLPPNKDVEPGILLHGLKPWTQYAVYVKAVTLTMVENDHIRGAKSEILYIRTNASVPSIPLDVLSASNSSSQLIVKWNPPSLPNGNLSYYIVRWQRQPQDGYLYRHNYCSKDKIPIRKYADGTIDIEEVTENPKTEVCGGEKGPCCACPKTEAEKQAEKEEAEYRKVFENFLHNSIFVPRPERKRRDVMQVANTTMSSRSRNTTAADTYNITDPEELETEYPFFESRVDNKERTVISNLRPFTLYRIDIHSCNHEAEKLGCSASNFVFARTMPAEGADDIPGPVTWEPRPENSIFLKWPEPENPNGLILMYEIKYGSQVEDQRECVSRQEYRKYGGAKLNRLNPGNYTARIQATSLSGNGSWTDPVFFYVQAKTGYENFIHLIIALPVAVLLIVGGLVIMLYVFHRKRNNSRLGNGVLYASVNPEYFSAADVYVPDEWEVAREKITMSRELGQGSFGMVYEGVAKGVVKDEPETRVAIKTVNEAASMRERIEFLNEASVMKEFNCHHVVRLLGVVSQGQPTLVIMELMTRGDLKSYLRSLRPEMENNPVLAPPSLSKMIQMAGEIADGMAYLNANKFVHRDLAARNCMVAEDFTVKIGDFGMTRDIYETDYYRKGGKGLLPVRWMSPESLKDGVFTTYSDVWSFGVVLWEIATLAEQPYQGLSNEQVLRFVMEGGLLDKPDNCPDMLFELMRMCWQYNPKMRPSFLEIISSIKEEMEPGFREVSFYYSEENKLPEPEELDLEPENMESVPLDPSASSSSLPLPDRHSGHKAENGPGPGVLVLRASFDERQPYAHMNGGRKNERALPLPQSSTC
T1 sequence (P06213 28-1382): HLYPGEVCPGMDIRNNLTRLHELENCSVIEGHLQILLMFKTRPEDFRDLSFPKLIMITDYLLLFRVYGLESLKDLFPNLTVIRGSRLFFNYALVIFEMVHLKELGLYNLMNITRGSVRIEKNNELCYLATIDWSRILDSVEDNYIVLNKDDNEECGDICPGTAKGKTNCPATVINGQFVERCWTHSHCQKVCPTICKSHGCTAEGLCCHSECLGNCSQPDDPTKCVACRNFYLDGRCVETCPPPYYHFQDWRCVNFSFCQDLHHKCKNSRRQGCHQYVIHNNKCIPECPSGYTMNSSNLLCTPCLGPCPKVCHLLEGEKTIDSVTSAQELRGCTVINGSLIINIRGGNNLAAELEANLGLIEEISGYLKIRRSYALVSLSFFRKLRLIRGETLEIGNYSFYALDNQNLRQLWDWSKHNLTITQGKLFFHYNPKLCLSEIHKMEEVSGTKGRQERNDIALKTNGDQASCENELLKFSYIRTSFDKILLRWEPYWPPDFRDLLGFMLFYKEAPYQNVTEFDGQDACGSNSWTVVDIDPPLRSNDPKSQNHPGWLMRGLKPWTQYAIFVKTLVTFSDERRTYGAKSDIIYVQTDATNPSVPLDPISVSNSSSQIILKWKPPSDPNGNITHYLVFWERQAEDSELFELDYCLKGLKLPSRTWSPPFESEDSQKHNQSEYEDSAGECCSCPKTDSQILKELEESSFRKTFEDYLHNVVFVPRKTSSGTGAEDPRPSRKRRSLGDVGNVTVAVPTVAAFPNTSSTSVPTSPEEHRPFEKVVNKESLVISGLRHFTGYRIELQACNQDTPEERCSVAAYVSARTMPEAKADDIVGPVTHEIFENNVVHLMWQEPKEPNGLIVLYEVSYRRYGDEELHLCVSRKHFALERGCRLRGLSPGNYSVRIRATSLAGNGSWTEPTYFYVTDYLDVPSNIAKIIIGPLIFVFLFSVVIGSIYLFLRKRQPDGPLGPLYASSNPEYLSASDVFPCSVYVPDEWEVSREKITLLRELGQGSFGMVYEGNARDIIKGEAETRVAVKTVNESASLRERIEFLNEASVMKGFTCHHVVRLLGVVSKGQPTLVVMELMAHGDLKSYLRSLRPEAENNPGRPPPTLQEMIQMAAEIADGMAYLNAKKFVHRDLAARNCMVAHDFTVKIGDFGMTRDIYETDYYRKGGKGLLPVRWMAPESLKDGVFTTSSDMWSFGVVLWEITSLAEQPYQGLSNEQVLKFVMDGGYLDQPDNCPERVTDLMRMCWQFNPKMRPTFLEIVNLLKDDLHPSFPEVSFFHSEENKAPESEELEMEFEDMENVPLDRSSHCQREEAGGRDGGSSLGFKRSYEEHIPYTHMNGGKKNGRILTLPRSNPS

Row | Compound | IC50 [1] | IC50 [2] | IC50 (COLO205 (colon)) | IC50 [3]
1 | COCCN(CCOC)C1CCN(c2ccc(Nc3nccc(-c4c(-c5cccc(C(=O)Nc6c(F)cccc6F)c5)nc5ccccn45)n3)c(OC)c2)CC1 [Example 49, 3-[3-(2-{[4-(4-{bis[2-(methyloxy)ethyl]amino}-1-piperidinyl)-2-(methyloxy)phenyl]amino}-4-pyrimidinyl)imidazo[1,2-a]pyridin-2-yl]-N-(2,6-difluorophenyl)benzamide] | 250 to 1000 nM | < 100 nM | 250 to 1000 nM | 100 to 500 nM
2 | COc1cc(N2CCC(N3CCN(S(C)(=O)=O)CC3)CC2)ccc1Nc1nccc(-c2c(-c3cccc(C(=O)Nc4c(F)cccc4F)c3)nc3c(C)cccn23)n1 [Example 68, N-(2,6-difluorophenyl)-3-(8-methyl-3-{2-[(2-(methyloxy)-4-{4-[4-(methylsulfonyl)-1-piperazinyl]-1-piperidinyl}phenyl)amino]-4-pyrimidinyl}imidazo[1,2-a]pyridin-2-yl)benzamide] | 250 to 1000 nM | 100 to 500 nM | 250 to 1000 nM | 100 to 500 nM
3 | CCOc1ccc(-c2nc3ccccn3c2-c2ccnc(Nc3ccc(N4CCC(N5CCN(CCF)CC5)CC4)cc3OC)n2)cc1C(=O)Nc1c(F)cccc1F [Example 63, N-(2,6-difluorophenyl)-2-(ethyloxy)-5-[3-(2-{[4-{4-[4-(2-fluoroethyl)-1-piperazinyl]-1-piperidinyl}-2-(methyloxy)phenyl]amino}-4-pyrimidinyl)imidazo[1,2-a]pyridin-2-yl]benzamide] | < 250 nM | < 100 nM | 250 to 1000 nM | < 100 nM
4 | COc1cc(N2CCC(N3CCN(CCF)CC3)CC2)ccc1Nc1nccc(-c2c(-c3ccc(OC)c(C(=O)Nc4c(F)cccc4F)c3)nc3cc(F)ccn23)n1 [Example 197, N-(2,6-difluorophenyl)-5-[7-fluoro-3-(2-{[4-{4-[4-(2-fluoroethyl)-1-piperazinyl]-1-piperidinyl]-2-(methyloxy)phenyl]amino}-4-pyrimidinyl)imidazo[1,2-a]pyridin-2-yl]-2-(methyloxy)benzamide] | < 250 nM | < 100 nM | 250 to 1000 nM | < 100 nM
5 | COc1cc(N2CCN3CCOC[C@@H]3C2)ccc1Nc1nccc(-c2c(-c3cccc(C(=O)Nc4c(F)cccc4F)c3)nc3ccccn23)n1 [Example 123] | 250 to 1000 nM | < 100 nM | 250 to 1000 nM | 100 to 500 nM
6 | COc1cc(N2CCC(N3CCN(CCF)CC3)CC2)ccc1Nc1nccc(-c2c(-c3cccc(C(=O)Nc4c(F)cccc4F)c3)nc3c(C)cccn23)n1 [Example 60, N-(2,6-difluorophenyl)-3-[3-(2-{[4-{4-[4-(2-fluoroethyl)-1-piperazinyl]-1-piperidinyl}-2-(methyloxy)phenyl]amino}-4-pyrimidinyl)-8-methylimidazo[1,2-a]pyridin-2-yl]benzamide] | 250 to 1000 nM | < 100 nM | 250 to 1000 nM | < 100 nM
7 | CCOc1ccc(-c2nc3ccccn3c2-c2ccnc(Nc3ccc(N4CCC(N5CCN(CCS(C)(=O)=O)CC5)CC4)cc3OC)n2)cc1C(=O)Nc1c(F)cccc1F [Example 66, N-(2,6-difluorophenyl)-2-(ethyloxy)-5-[3-(2-{[2-(methyloxy)-4-(4-{4-[2-(methylsulfonyl)-ethyl]-1-piperazinyl}-1-piperidinyl)phenyl]amino}-4-pyrimidinyl)imidazo[1,2-a]pyridin-2-yl]benzamide] | < 250 nM | < 100 nM | 250 to 1000 nM | < 100 nM
8 | CCOc1cc(N2CCN(CCS(C)(=O)=O)CC2)c(C)cc1Nc1nccc(-c2c(-c3ccc(OC(C)C)c(C(=O)Nc4c(F)cccc4F)c3)nc3ccccn23)n1 [Example 249, N-(2,6-difluorophenyl)-5-(3-{2-[(2-(ethyloxy)-5-methyl-4-{4-[2-(methylsulfonyl)ethyl]-1-piperazinyl}phenyl)amino]-4-pyrimidinyl}imidazo[1,2-a]pyridin-2-yl)-2-[(1-methylethyl)oxy]benzamide] | < 250 nM |  | < 250 nM | 
9 | COc1cc(N2CCC(CCS(C)(=O)=O)CC2)ccc1Nc1nccc(-c2c(-c3ccc(OC)c(C(=O)Nc4c(F)cccc4F)c3)nc3cc(F)ccn23)n1 [Example 216, N-(2,6-difluorophenyl)-5-(7-fluoro-3-{2-[(2-(methyloxy)-4-{4-[2-(methylsulfonyl)ethyl]-1-piperidinyl}phenyl)amino]-4-pyrimidinyl}imidazo[1,2-a]pyridin-2-yl)-2-(methyloxy)benzamide] | < 250 nM |  | 250 to 1000 nM | 
10 | CN(C)CCOc1cccc(Nc2nccc(-c3c(-c4cccc(C(=O)Nc5c(F)cc(F)cc5F)c4)nc4ccccn34)n2)c1 [Example 12, 3-(3-{2-[(3-{[2-(dimethylamino)ethyl]oxy}phenyl)amino]-4-pyrimidinyl}imidazo[1,2-a]pyridin-2-yl)-N-(2,4,6-trifluorophenyl)benzamide] | < 250 nM |  | 250 to 1000 nM | 100 to 500 nM
11 | COc1cc(N2CCC(N3CCCCC3)CC2)ccc1Nc1nccc(-c2c(-c3cccc(C(=O)Nc4c(F)cccc4F)c3)nc3cc(C(F)(F)F)ccn23)n1 [Example 191, 3-[3-(2-{[4-(1,4′-bipiperidin-1′-yl)-2-(methyloxy)phenyl]amino}-4-pyrimidinyl)-7-(trifluoromethyl)imidazo[1,2-a]pyridin-2-yl]-N-(2,6-difluorophenyl)benzamide] | > 1000 nM |  | > 1000 nM | 

The remaining lines, values ahead:

Row | IC50 [1] | IC50 [2] | IC50 (COLO205 (colon)) | IC50 [3] | Compound
12 | < 250 nM | < 100 nM | 250 to 1000 nM | < 100 nM | CCOc1cc(N2CCC(N3CCN(CCS(C)(=O)=O)CC3)CC2)ccc1Nc1nccc(-c2c(-c3cccc(C(=O)Nc4c(F)cccc4F)c3)nc3ccccn23)n1 [Example 119, N-(2,6-difluorophenyl)-3-[3-(2-{[2-(ethyloxy)-4-(4-{4-[2-(methylsulfonyl)ethyl]-1-piperazin-yl]-1-piperidinyl)phenyl]amino}-4-pyrimidinyl)imidazo[1,2-a]pyridin-2-yl]benzamide]
13 | < 250 nM | < 100 nM | 250 to 1000 nM | < 100 nM | COc1cc(C2CCN(CCS(C)(=O)=O)CC2)ccc1Nc1nccc(-c2c(-c3cccc(C(=O)Nc4c(F)cccc4F)c3)nc3ccccn23)n1 [Example 180, N-(2,6-difluorophenyl)-3-(3-{2-[(2-(methyloxy)-4-{1-[2-(methylsulfonyl)ethyl]-4-piperidinyl}phenyl)amino]-4-pyrimidinyl}imidazo[1,2-a]pyridin-2-yl)benzamide]
14 | 250 to 1000 nM | 100 to 500 nM | 250 to 1000 nM | < 100 nM | CCCc1cc(C2CCN(CCS(C)(=O)=O)CC2)ccc1Nc1nccc(-c2c(-c3cccc(C(=O)Nc4c(F)cccc4F)c3)nc3ccccn23)n1 [Example 166, N-(2,6-difluorophenyl)-3-(3-{2-[(4-{1-[2-(methylsulfonyl)ethyl]-4-piperidinyl}-2-propylphenyl)amino]-4-pyrimidinyl}imidazo[1,2-a]pyridin-2-yl)benzamide]
15 | < 250 nM | < 100 nM |  | < 100 nM | COc1cc(N2CCC(CCS(C)(=O)=O)CC2)c(C)cc1Nc1nccc(-c2c(-c3cccc(C(=O)Nc4c(F)cccc4F)c3)nc3ccccn23)n1 [Example 231, N-(2,6-difluorophenyl)-3-(3-{2-[(5-methyl-2-(methyloxy)-4-{4-[2-(methylsulfonyl)ethyl]-1-piperidinyl}phenyl)amino]-4-pyrimidinyl}imidazo[1,2-a]pyridin-2-yl)benzamide]
16 | < 250 nM |  | < 250 nM |  | CCOc1cc(C2CCN(CCS(C)(=O)=O)CC2)ccc1Nc1nccc(-c2c(-c3ccc(OC)c(C(=O)Nc4c(F)cccc4F)c3)nc3ccccn23)n1 [Example 184, N-(2,6-difluorophenyl)-5-(3-{2-[(2-(ethyloxy)-4-{1-[2-(methylsulfonyl)ethyl]-4-piperidinyl}-phenyl)amino]-4-pyrimidinyl}imidazo[1,2-a]pyridin-2-yl)-2-(methyloxy)benzamide]
17 | < 250 nM |  | 250 to 1000 nM |  | COc1cc(N2CCC(N3CCN(CCS(C)(=O)=O)CC3)CC2)c(C)cc1Nc1nccc(-c2c(-c3cccc(C(=O)Nc4c(F)cccc4F)c3)nc3ccccn23)n1 [Example 115, N-(2,6-difluorophenyl)-3-[3-(2-{[5-methyl-2-(methyloxy)-4-(4-{4-[2-(methylsulfonyl)ethyl]-1-piperazinyl}-1-piperidinyl)phenyl]amino]-4-pyrimidinyl)imidazo[1,2-a]pyridin-2-yl]benzamide]
18 | < 250 nM |  | < 250 nM |  | CCOc1cc(C2CCN(CCS(C)(=O)=O)CC2)ccc1Nc1nccc(-c2c(-c3ccc(OC(C)C)c(C(=O)Nc4c(F)cccc4F)c3)nc3ccccn23)n1 [Example 186, N-(2,6-difluorophenyl)-5-(3-{2-[(2-(ethyloxy)-4-{1-[2-(methylsulfonyl)ethyl]-4-piperidinyl}phenyl)amino]-4-pyrimidinyl}imidazo[1,2-a]pyridin-2-yl)-2-[(1-methylethyl)oxy]benzamide]
